Patent US20240190876A1, “Tricyclic Urea Compounds As JAK2 V617F Inhibitors” (Incyte Corporation, priority 2022, published 2024)

Each molecule was assayed against T1, FLT3 (Homo sapiens, UniProt P36888) (assay: FLT3 Enzymatic Assay). Conditions: HTRF kinase assay, 1 mM ATP.
T1 sequence (P36888 27-993): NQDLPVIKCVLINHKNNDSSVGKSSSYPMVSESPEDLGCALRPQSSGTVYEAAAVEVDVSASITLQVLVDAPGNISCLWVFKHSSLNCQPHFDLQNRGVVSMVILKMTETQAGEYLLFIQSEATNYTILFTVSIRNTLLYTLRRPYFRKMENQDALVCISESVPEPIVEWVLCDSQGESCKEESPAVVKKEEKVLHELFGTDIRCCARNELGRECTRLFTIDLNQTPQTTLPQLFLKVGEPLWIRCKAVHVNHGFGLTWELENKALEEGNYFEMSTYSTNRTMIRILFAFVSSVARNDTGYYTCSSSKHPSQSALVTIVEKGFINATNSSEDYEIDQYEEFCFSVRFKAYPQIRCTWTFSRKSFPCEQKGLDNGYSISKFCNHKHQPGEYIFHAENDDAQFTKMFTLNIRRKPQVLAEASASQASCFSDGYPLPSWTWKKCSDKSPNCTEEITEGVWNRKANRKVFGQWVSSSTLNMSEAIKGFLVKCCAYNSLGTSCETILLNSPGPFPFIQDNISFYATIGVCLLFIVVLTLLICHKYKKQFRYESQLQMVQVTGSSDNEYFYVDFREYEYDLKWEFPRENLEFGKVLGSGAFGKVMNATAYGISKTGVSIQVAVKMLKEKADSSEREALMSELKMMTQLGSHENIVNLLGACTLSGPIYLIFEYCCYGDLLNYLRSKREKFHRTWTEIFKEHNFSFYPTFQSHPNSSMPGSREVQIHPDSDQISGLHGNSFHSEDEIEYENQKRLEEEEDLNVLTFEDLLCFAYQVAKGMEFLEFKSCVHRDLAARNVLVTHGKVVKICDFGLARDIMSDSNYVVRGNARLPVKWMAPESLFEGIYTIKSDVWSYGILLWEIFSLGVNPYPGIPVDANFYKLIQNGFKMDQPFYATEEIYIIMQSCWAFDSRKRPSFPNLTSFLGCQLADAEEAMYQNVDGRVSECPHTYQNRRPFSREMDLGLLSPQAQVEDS
Assay type: biochemical
Protocol: The kinase assays were carried out at room temperature in assay buffer (HEPES 50 mM, pH 7.0, NaN3 0.02%, BSA 0.01%, Orthovanadate 0.1 mM, DTT 1 mM, MgCl2 10 mM) in a final volume of 10 μL. Testing compounds were prepared by serial dilution in DMSO and transferred to the plate wells by ECHO liquid handler (Labcyte) with 0.5% DMSO in the final assay. […]. Reactions were initiated by the addition of 5 μL ATP in assay buffer. The final 10 μL kinase reaction consists of 0.011 nM FLT3, 1 mM ATP, 500 nM TK Substrate-biotin and SEB reagent 62.5 nM in assay buffer. […] The plates were then sealed and centrifuged at 1800 rpm for 2 minutes. After 60 minutes incubation at room temperature, the product activity was determined by measuring the fluorescence at 620 nm and 665 nm on Pherastar microplate reader (BMG Labtech). A ratio is calculated (665/620 nm) for each well. Wells with DMSO only were served as the positive controls and wells containing no ATP were used as negative controls. IC50 determination was performed by fitting the curve of percent control activity versus the log of the compound concentration using the GraphPad Prism 7.0 software.

| Structure (SMILES) | IC50 [nM] |
| --- | --- |
| COc1ccc(-c2c(-c3cn(C)nc3OC)[nH]c3ncc4c(c23)n([C@H]2CC[C@@](C)(NC(=O)C3CC3)CC2)c(=O)n4C)cc1 [Example 1, N-((1s,4s)-4-(7-(3-Methoxy-1-methyl-1H-pyrazol-4-yl)-8-(4-methoxyphenyl)-3-methyl-2-oxo-3,6-dihydroimidazo[4,5-d]pyrrolo[2,3-b]pyridin-1(2H)-yl)-1-methylcyclohexyl)cyclopropanecarboxamide] | > 2500 |
| [2H]C([2H])([2H])n1ncc2cc(-c3c(-c4cn(C)nc4OC)[nH]c4ncc5c(c34)n([C@H]3CC[C@@](C)(NC(=O)C4CC4)CC3)c(=O)n5C)ccc21 [Example 2, N-((1s,4s)-4-(7-(3-Methoxy-1-methyl-1H-pyrazol-4-yl)-3-methyl-8-(1-(methyl-d3)-1H-indazol-5-yl)-2-oxo-3,6-dihydroimidazo[4,5-d]pyrrolo[2,3-b]pyridin-1(2H)-yl)-1-methylcyclohexyl)cyclopropanecarboxamide] | 1250 to 2500 |
| [2H]C([2H])([2H])n1cc(-c2[nH]c3ncc4c(c3c2-c2ccc(OC)cc2)n([C@H]2CC[C@@](C)(NC(=O)C3CC3)CC2)c(=O)n4C)c(F)n1 [Example 3, N-((1s,4s)-4-(7-(3-fluoro-1-(methyl-d3)-1H-pyrazol-4-yl)-8-(4-methoxyphenyl)-3-methyl-2-oxo-3,6-dihydroimidazo[4,5-d]pyrrolo[2,3-b]pyridin-1(2H)-yl)-1-methylcyclohexyl)cyclopropanecarboxamide] | 250 to 1250 |
| [2H]C([2H])([2H])n1cc(-c2[nH]c3ncc4c(c3c2-c2ccc3c(cnn3C([2H])([2H])[2H])c2)n([C@H]2CC[C@@](C)(NC(=O)C3CC3)CC2)c(=O)n4C)c(F)n1 [Example 4, N-((1s,4s)-4-(7-(3-fluoro-1-(methyl-d3)-1H-pyrazol-4-yl)-3-methyl-8-(1-(methyl-d3)-1H-indazol-5-yl)-2-oxo-3,6-dihydroimidazo[4,5-d]pyrrolo[2,3-b]pyridin-1(2H)-yl)-1-methylcyclohexyl)cyclopropanecarboxamide] | 250 to 1250 |
| [2H]C([2H])([2H])n1ncc2cc(-c3c(-c4cn(CC)nc4F)[nH]c4ncc5c(c34)n([C@H]3CC[C@@](C)(NC(=O)C4CC4)CC3)c(=O)n5C)ccc21 [Example 5, N-((1s,4s)-4-(7-(1-Ethyl-3-fluoro-1H-pyrazol-4-yl)-3-methyl-8-(1-(methyl-d3)-1H-indazol-5-yl)-2-oxo-3,6-dihydroimidazo[4,5-d]pyrrolo[2,3-b]pyridin-1(2H)-yl)-1-methylcyclohexyl)cyclopropanecarboxamide] | 25 to 250 |
| [2H]C([2H])([2H])n1cc(-c2[nH]c3ncc4c(c3c2-c2ccc(OC)cc2)n([C@H]2CC[C@@](C)(NC(=O)[C@H]3C[C@H]3F)CC2)c(=O)n4C([2H])([2H])[2H])c(F)n1 [Example 6, (1R,2R)-2-Fluoro-N-((1s,4S)-4-(7-(3-fluoro-1-(methyl-d3)-1H-pyrazol-4-yl)-8-(4-methoxyphenyl)-3-(methyl-d3)-2-oxo-3,6-dihydroimidazo[4,5-d]pyrrolo[2,3-b]pyridin-1(2H)-yl)-1-methylcyclohexyl)cyclopropane-1-carboxamide] | 25 to 250 |
